Measurements from ChEMBL document CHEMBL1201862, “PubChem BioAssay data set” (2004).
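All cell lines were grown in 96-well plates and treated with compound for 48 hours. GI50 is the concentration that inhibits growth by half.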 Calls of active or inactive are those of the source. Cut-off read from the data, not from the text of the source: active = GI50 up to about 1.1 µM and inactive = higher.

Columns and labels:
Assay in all cases: NCI anticancer screen, dose series, 48 h
EKVX = system: EKVX
SN12C = system: SN12C
DMS-273 = system: DMS-273
M14 = system: M14
Malme-3M = system: Malme-3M
M19-MEL = system: M19-MEL
SF-539 = system: SF-539
A498 = system: A498
CAKI-1 = system: CAKI-1
786-0 = system: 786-0
SK-OV-3 = system: SK-OV-3
DLD-1 = system: DLD-1
UO-31 = system: UO-31
K562 = system: K562
HCT-116 = system: HCT-116
HCC 2998 = system: HCC 2998

Measured: GI50

O=c1[nH]c(=O)n(C2CC(O)C(CO)O2)cc1C(F)(C(F)(F)F)C(F)(F)F (configuration not stated)
inactive: EKVX > 100 µM | SN12C > 100 µM | DMS-273 > 100 µM | M14 > 100 µM | Malme-3M > 100 µM | M19-MEL > 100 µM | SF-539 > 100 µM | A498 > 100 µM | CAKI-1 > 100 µM | 786-0 > 100 µM | SK-OV-3 > 100 µM | DLD-1 > 100 µM | UO-31 > 100 µM | K562 > 100 µM

CCCCN(CC)C(=O)C(=O)Cc1nc2ccc(C(=O)c3ccccc3)cc2nc1O
inactive: EKVX > 63.2 µM | HCT-116 > 100 µM | SN12C > 86.1 µM | DMS-273 53 µM | M14 > 100 µM | M19-MEL > 100 µM | SF-539 98.9 µM | A498 > 100 µM | CAKI-1 54.3 µM | 786-0 > 100 µM | SK-OV-3 85.1 µM | DLD-1 > 100 µM | UO-31 33.3 µM | K562 19.1 µM

OCC(CO)C1c2cccc3ccc4cccc1c4c23
inactive: EKVX 87.9 µM | HCT-116 > 100 µM | SN12C > 100 µM | DMS-273 > 100 µM | M14 > 100 µM | Malme-3M > 100 µM | M19-MEL > 100 µM | SF-539 > 100 µM | A498 > 100 µM | CAKI-1 > 100 µM | 786-0 > 100 µM | SK-OV-3 > 100 µM | DLD-1 > 100 µM | UO-31 62.5 µM | K562 > 100 µM

CCOC(=O)C12CCCC1(O)N(NC(=O)c1ccccc1)C(C)=C2C(=O)OC (configuration not stated)
inactive: EKVX > 100 µM | HCC 2998 > 100 µM | HCT-116 > 100 µM | SN12C > 100 µM | DMS-273 > 100 µM | M14 > 100 µM | Malme-3M > 100 µM | M19-MEL > 100 µM | SF-539 > 100 µM | A498 > 100 µM | CAKI-1 > 100 µM | 786-0 > 100 µM | SK-OV-3 > 100 µM | UO-31 > 100 µM | K562 > 100 µM

CCCNC(=S)NNC(=O)CSc1nc(-c2ccccc2)c(-c2ccccc2)[nH]1
inactive: EKVX 37 µM | HCT-116 94.4 µM | SN12C 74 µM | DMS-273 34.8 µM | M14 24.1 µM | Malme-3M 22.1 µM | M19-MEL 45 µM | SF-539 90.6 µM | A498 77.6 µM | CAKI-1 33.3 µM | 786-0 37 µM | SK-OV-3 > 100 µM | DLD-1 70.3 µM | UO-31 30.8 µM
